Measured values from ChEMBL document CHEMBL3616438, “Molecular modeling studies and synthesis of novel quinoxaline derivatives with potential anticancer activity as inhibitors of c-Met kinase” (Bioorg Med Chem, 2015).
Values after ≈ are worked out from the molar mass of the structure shown.

Experiments:
Format in all cases: functional, cell-based
MCF7 = assay: Cytotoxicity against human MCF7 cells assessed as inhibition of cell viability after 72 hrs by SRB assay
NCI-H460 = assay: Cytotoxicity against human NCI-H460 cells assessed as inhibition of cell viability after 72 hrs by SRB assay
SF-268 = assay: Cytotoxicity against human SF268 cells assessed as inhibition of cell viability after 72 hrs by SRB assay

Compound | IC50 (MCF7) [µg/mL] | IC50 (NCI-H460) [µg/mL] | IC50 (SF-268) [µg/mL]
Cc1nc2cc(Br)ccc2nc1Sc1ccccc1 | 0.01222 (≈ 0.0369 µM) | 0.01842 (≈ 0.0556 µM) | 0.01816 (≈ 0.0548 µM)
Cc1nc2cc(Br)ccc2n2nnnc12 | 0.03309 (≈ 0.125 µM) | 0.0208 (≈ 0.0788 µM) | 0.0203 (≈ 0.0769 µM)
COc1cccc2c1C(=O)c1c(O)c3c(c(O)c1C2=O)C[C@@](O)(C(=O)CO)C[C@@H]3O[C@H]1C[C@H](N)[C@H](O)[C@H](C)O1 [DOXORUBICIN] | 0.04 (≈ 0.0736 µM) | 0.09 (≈ 0.166 µM) | 0.09 (≈ 0.166 µM)
Cc1nc2cc(Br)ccc2nc1Oc1ccc(C=O)cc1 | 0.03278 (≈ 0.0955 µM) | 0.02845 (≈ 0.0829 µM) | 0.0405 (≈ 0.118 µM)
O=c1[nH]c2ccc(Br)cc2nc1/C=C/c1ccc(Br)cc1 | 0.03223 (≈ 0.0794 µM) | 0.03632 (≈ 0.0894 µM) | 0.04066 (≈ 0.1 µM)
CCOC(=O)Cn1c(=O)c(C)nc2cc(Br)ccc21 | 0.0224 (≈ 0.0689 µM) | 0.01042 (≈ 0.032 µM) | 0.00863 (≈ 0.0265 µM)
Cc1nc2cc(Br)ccc2nc1Oc1ccc(/N=C\c2ccc(Cl)cc2)cc1 | 0.08 (≈ 0.177 µM) | 0.08 (≈ 0.177 µM) | 0.02 (≈ 0.0442 µM)
Cc1nc2cc(Br)ccc2nc1Oc1ccc(/C=N\c2ccc(Cl)cc2)cc1 | 0.01263 (≈ 0.0279 µM) | 0.01866 (≈ 0.0412 µM) | 0.03043 (≈ 0.0672 µM)
Cc1nc2cc(Br)ccc2nc1Oc1ccc(N)cc1 | 0.81 (≈ 2.45 µM) | 0.52 (≈ 1.57 µM) | 0.08 (≈ 0.242 µM)
Cc1nc2cc(Br)ccc2n(CC(=O)NN)c1=O | 0.01 (≈ 0.0321 µM) | 0.02 (≈ 0.0643 µM) | 0.06 (≈ 0.193 µM)
Cc1nc2cc(Br)ccc2nc1Oc1ccccc1N | 0.02 (≈ 0.0606 µM) | 0.03 (≈ 0.0909 µM) | 0.06 (≈ 0.182 µM)
Cc1ccc(/C=C/c2nc3cc(Br)ccc3[nH]c2=O)cc1 | 0.02221 (≈ 0.0651 µM) | 0.00812 (≈ 0.0238 µM) | 0.0168 (≈ 0.0492 µM)
Cc1cc(C)n(-c2nc3ccc(Br)cc3nc2C)n1 | 0.02355 (≈ 0.0742 µM) | 0.0346 (≈ 0.109 µM) | 0.04541 (≈ 0.143 µM)
O=c1[nH]c2ccc(Br)cc2nc1/C=C/c1ccc(O)cc1 | 0.02281 (≈ 0.0665 µM) | 0.02281 (≈ 0.0665 µM) | 0.02283 (≈ 0.0665 µM)
COc1ccc(/C=C/c2nc3cc(Br)ccc3[nH]c2=O)cc1 | 0.06 (≈ 0.168 µM) | 0.06 (≈ 0.168 µM) | 0.2 (≈ 0.56 µM)
Cc1nc2cc(Br)ccc2nc1NN | 0.02427 (≈ 0.0959 µM) | 0.02062 (≈ 0.0815 µM) | 0.01682 (≈ 0.0665 µM)
Cc1nc2cc(Br)ccc2nc1N1CCCCC1 | 0.03361 (≈ 0.11 µM) | 0.04032 (≈ 0.132 µM) | 0.03044 (≈ 0.0994 µM)
Cc1nc2cc(Br)ccc2nc1Nc1ccc(S(=O)(=O)N2CCCCC2)cc1 | 0.00162 (≈ 0.00351 µM) | 0.67 (≈ 1.45 µM) | 0.0018 (≈ 0.0039 µM)
